Measured values published in patent publication US20110039721A1, “METHOD FOR PREDICTION ABOUT CARCINOGENICITY OF SUBSTANCE IN RODENT” (Chemicals Evaluation and Research Institute, priority 2007, published 2011).
Read-outs that look alike come from different tables or passages of the source.

Columns and labels:
rodent = conditions: cited from earlier work
[1] = tested on: mRNA expressed from the genes (A) to (D) in rat liver; experiment: Behavior of genes (mRNA expression level, oligo-DNA microarray) in rat liver after 28-day oral administration; assay type: in vivo; conditions: mRNA vs vehicle control group; for Behavior of gene caused by administration of chemical substance, Gene No. 4846 / Behavior of gene caused by administration of chemical substance, Gene No. 2026 / Behavior of gene caused by administration of chemical substance, Gene No. 4218 / Behavior of gene caused by administration of chemical substance, Gene No. 6182 / Behavior of gene caused by administration of chemical substance, Gene No. 5600: gene group (A); for Behavior of gene caused by administration of chemical substance, Gene No. 4846: Unigene No. Rn.144554; for Behavior of gene caused by administration of chemical substance, Gene No. 2026 / Behavior of gene caused by administration of chemical substance, Gene No. 4218: Unigene No. Rn.167075; for Behavior of gene caused by administration of chemical substance, Gene No. 6182: Unigene No. Rn.5834; for Behavior of gene caused by administration of chemical substance, Gene No. 5600: Unigene No. Rn.9836; for Behavior of gene caused by administration of chemical substance, Gene No. 1494 / Behavior of gene caused by administration of chemical substance, Gene No. 2045 / Behavior of gene caused by administration of chemical substance, Gene No. 2203: gene group (B); for Behavior of gene caused by administration of chemical substance, Gene No. 1494: Unigene No. Rn.1430; for Behavior of gene caused by administration of chemical substance, Gene No. 2045: Unigene No. Rn.19329; for Behavior of gene caused by administration of chemical substance, Gene No. 2203: Unigene No. Rn.21240; for Behavior of gene caused by administration of chemical substance, Gene No. 533 / Behavior of gene caused by administration of chemical substance, Gene No. 725 / Behavior of gene caused by administration of chemical substance, Gene No. 1163 / Behavior of gene caused by administration of chemical substance, Gene No. 4973 / Behavior of gene caused by administration of chemical substance, Gene No. 4095 / Behavior of gene caused by administration of chemical substance, Gene No. 1334 / Behavior of gene caused by administration of chemical substance, Gene No. 6620 / Behavior of gene caused by administration of chemical substance, Gene No. 6303 / Behavior of gene caused by administration of chemical substance, Gene No. 5878 / Behavior of gene caused by administration of chemical substance, Gene No. 1131 / Behavior of gene caused by administration of chemical substance, Gene No. 1562 / Behavior of gene caused by administration of chemical substance, Gene No. 1741 / Behavior of gene caused by administration of chemical substance, Gene No. 893 / Behavior of gene caused by administration of chemical substance, Gene No. 6026 / Behavior of gene caused by administration of chemical substance, Gene No. 154 / Behavior of gene caused by administration of chemical substance, Gene No. 1993 / Behavior of gene caused by administration of chemical substance, Gene No. 813 / Behavior of gene caused by administration of chemical substance, Gene No. 2494 / Behavior of gene caused by administration of chemical substance, Gene No. 2546 / Behavior of gene caused by administration of chemical substance, Gene No. 3776 / Behavior of gene caused by administration of chemical substance, Gene No. 3929 / Behavior of gene caused by administration of chemical substance, Gene No. 1119 / Behavior of gene caused by administration of chemical substance, Gene No. 6742 / Behavior of gene caused by administration of chemical substance, Gene No. 5634: gene group (C); for Behavior of gene caused by administration of chemical substance, Gene No. 533: Unigene No. Rn.106184; for Behavior of gene caused by administration of chemical substance, Gene No. 725: Unigene No. Rn.108075; for Behavior of gene caused by administration of chemical substance, Gene No. 1163: Unigene No. Rn.11766; for Behavior of gene caused by administration of chemical substance, Gene No. 4973: Unigene No. Rn.118529; for Behavior of gene caused by administration of chemical substance, Gene No. 4095: Unigene No. Rn.119024; for Behavior of gene caused by administration of chemical substance, Gene No. 1334 / Behavior of gene caused by administration of chemical substance, Gene No. 6620: Unigene No. Rn.120914; for Behavior of gene caused by administration of chemical substance, Gene No. 6303: Unigene No. Rn.123063; for Behavior of gene caused by administration of chemical substance, Gene No. 5878: Unigene No. Rn.143213; for Behavior of gene caused by administration of chemical substance, Gene No. 1131: Unigene No. Rn.144946; for Behavior of gene caused by administration of chemical substance, Gene No. 1562: Unigene No. Rn.14744; for Behavior of gene caused by administration of chemical substance, Gene No. 1741: Unigene No. Rn.1647; for Behavior of gene caused by administration of chemical substance, Gene No. 893: Unigene No. Rn.164817; for Behavior of gene caused by administration of chemical substance, Gene No. 6026: Unigene No. Rn.167685; for Behavior of gene caused by administration of chemical substance, Gene No. 154: Unigene No. Rn.185941; for Behavior of gene caused by administration of chemical substance, Gene No. 1993: Unigene No. Rn.18728; for Behavior of gene caused by administration of chemical substance, Gene No. 813: Unigene No. Rn.201760; for Behavior of gene caused by administration of chemical substance, Gene No. 2494: Unigene No. Rn.23969; for Behavior of gene caused by administration of chemical substance, Gene No. 2546: Unigene No. Rn.24561; for Behavior of gene caused by administration of chemical substance, Gene No. 3776: Unigene No. Rn.43232; for Behavior of gene caused by administration of chemical substance, Gene No. 3929: Unigene No. Rn.4620; for Behavior of gene caused by administration of chemical substance, Gene No. 1119: Unigene No. Rn.9757; for Behavior of gene caused by administration of chemical substance, Gene No. 6742: Unigene No. Rn.9779; for Behavior of gene caused by administration of chemical substance, Gene No. 5634: Unigene No. Rn.9862; for Behavior of gene caused by administration of chemical substance, Gene No. 5726: gene group (D), Unigene No. Rn.9939
Summary of the method: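 Oral gavage, once daily × 28 days; male F344 SPF rats, 5 wk, n=4/group; vehicle controls given equal solvent volume. Liver excised day 28, total RNA purified. Significance: ≥1.5× or ≤1/1.5 of vehicle, direction concordant with other carcinogens.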

liver = conditions: cited from earlier work
[2] = classification of the substance (M+/M−); cited from earlier work
[3] = classification of the substance (C+/C−)
[4] = classification of the substance (Cr+/Cr−)

SMILES | Behavior of gene caused by administration of chemical substance, Gene No. 4846 [1] | Behavior of gene caused by administration of chemical substance, Gene No. 2026 [1] | Behavior of gene caused by administration of chemical substance, Gene No. 4218 [1] | Behavior of gene caused by administration of chemical substance, Gene No. 6182 [1] | Behavior of gene caused by administration of chemical substance, Gene No. 5600 [1] | Behavior of gene caused by administration of chemical substance, Gene No. 1494 [1] | Behavior of gene caused by administration of chemical substance, Gene No. 2045 [1] | Behavior of gene caused by administration of chemical substance, Gene No. 2203 [1] | Behavior of gene caused by administration of chemical substance, Gene No. 533 [1] | Behavior of gene caused by administration of chemical substance, Gene No. 725 [1] | Behavior of gene caused by administration of chemical substance, Gene No. 1163 [1] | Behavior of gene caused by administration of chemical substance, Gene No. 4973 [1] | Behavior of gene caused by administration of chemical substance, Gene No. 4095 [1] | Behavior of gene caused by administration of chemical substance, Gene No. 1334 [1] | Behavior of gene caused by administration of chemical substance, Gene No. 6620 [1] | Behavior of gene caused by administration of chemical substance, Gene No. 6303 [1] | Behavior of gene caused by administration of chemical substance, Gene No. 5878 [1] | Behavior of gene caused by administration of chemical substance, Gene No. 1131 [1] | Behavior of gene caused by administration of chemical substance, Gene No. 1562 [1] | Behavior of gene caused by administration of chemical substance, Gene No. 1741 [1] | also measured
Cn1c(N)nc2ncc(-c3ccccc3)cc21 [TS045, 2-amino-1-methyl-6-phenylimidazo[4,5-b]-pyridine] | − | − | − | − | − | − | + | + | − | − | − | − | − | − | − | − | − | − | − | − | Carcinogenicity (rodent; [3]): C+; Behavior of gene caused by administration of chemical substance, Gene No. 893 [1]: −; Behavior of gene caused by administration of chemical substance, Gene No. 6026 [1]: −; Behavior of gene caused by administration of chemical substance, Gene No. 154 [1]: −; Behavior of gene caused by administration of chemical substance, Gene No. 1993 [1]: −; Behavior of gene caused by administration of chemical substance, Gene No. 813 [1]: −; Behavior of gene caused by administration of chemical substance, Gene No. 2494 [1]: +; Behavior of gene caused by administration of chemical substance, Gene No. 2546 [1]: −; Behavior of gene caused by administration of chemical substance, Gene No. 3776 [1]: −; Behavior of gene caused by administration of chemical substance, Gene No. 3929 [1]: −; Behavior of gene caused by administration of chemical substance, Gene No. 1119 [1]: −; Behavior of gene caused by administration of chemical substance, Gene No. 6742 [1]: −; Behavior of gene caused by administration of chemical substance, Gene No. 5634 [1]: −; Behavior of gene caused by administration of chemical substance, Gene No. 5726 [1]: +; Liver carcinogenicity (liver; [4]): Cr−; Mutagenicity by Ames test [2]: M+
Cc1c2ccccc2c(C)c2c1ccc1ccccc12 [TS047, 7,12-Dimethylbenz [a]anthracene] | − | − | − | − | − | − | − | − | − | + | + | − | − | − | − | − | − | − | − | − | Carcinogenicity (rodent; in vivo): C+; Behavior of gene caused by administration of chemical substance, Gene No. 893 [1]: −; Behavior of gene caused by administration of chemical substance, Gene No. 6026 [1]: −; Behavior of gene caused by administration of chemical substance, Gene No. 154 [1]: −; Behavior of gene caused by administration of chemical substance, Gene No. 1993 [1]: −; Behavior of gene caused by administration of chemical substance, Gene No. 813 [1]: −; Behavior of gene caused by administration of chemical substance, Gene No. 2494 [1]: −; Behavior of gene caused by administration of chemical substance, Gene No. 2546 [1]: −; Behavior of gene caused by administration of chemical substance, Gene No. 3776 [1]: −; Behavior of gene caused by administration of chemical substance, Gene No. 3929 [1]: −; Behavior of gene caused by administration of chemical substance, Gene No. 1119 [1]: −; Behavior of gene caused by administration of chemical substance, Gene No. 6742 [1]: −; Behavior of gene caused by administration of chemical substance, Gene No. 5634 [1]: −; Behavior of gene caused by administration of chemical substance, Gene No. 5726 [1]: +; Liver carcinogenicity (liver; in vivo): Cr−; Mutagenicity by Ames test [2]: M+
Cc1ccc2cc3c(ccc4ccccc43)c3c2c1CC3 [TS048, 3-Methylcholanthrene] | − | + | − | − | − | − | − | − | − | − | − | − | − | − | − | − | − | − | − | − | Carcinogenicity (rodent; [3]): C+; Behavior of gene caused by administration of chemical substance, Gene No. 893 [1]: −; Behavior of gene caused by administration of chemical substance, Gene No. 6026 [1]: −; Behavior of gene caused by administration of chemical substance, Gene No. 154 [1]: −; Behavior of gene caused by administration of chemical substance, Gene No. 1993 [1]: −; Behavior of gene caused by administration of chemical substance, Gene No. 813 [1]: −; Behavior of gene caused by administration of chemical substance, Gene No. 2494 [1]: −; Behavior of gene caused by administration of chemical substance, Gene No. 2546 [1]: −; Behavior of gene caused by administration of chemical substance, Gene No. 3776 [1]: −; Behavior of gene caused by administration of chemical substance, Gene No. 3929 [1]: −; Behavior of gene caused by administration of chemical substance, Gene No. 1119 [1]: −; Behavior of gene caused by administration of chemical substance, Gene No. 6742 [1]: −; Behavior of gene caused by administration of chemical substance, Gene No. 5634 [1]: +; Behavior of gene caused by administration of chemical substance, Gene No. 5726 [1]: +; Liver carcinogenicity (liver; [4]): Cr−; Mutagenicity by Ames test [2]: M+
